Reference: BigSolDB 2.1

O=C(/C=C/c1ccc(O)c(O)c1)O[C@H](Cc1ccc(O)c(O)c1)C(=O)O
solubility (mole fraction)
Conditions | 293.15 K | 298.15 K | 303.15 K | 308.15 K | 313.15 K | 318.15 K
in ethanol | 0.268 | 0.295 | 0.328 | 0.366 | 0.408 | 0.455
in methanol | 0.28 | 0.314 | 0.358 | 0.399 | 0.443 | 0.494
in water | 0.0135 | 0.0151 | 0.0165 | 0.0185 | 0.0209 | 0.0248
